Reference: publication PMC10322702 (Nature Chemistry, 2023)
Values joined by “and” are separate entries in the source; they are usually repeats but may differ in a detail not shown here. Identical values can stand only once. Numbered stars: 1 amine (or outer) side, 2 acyl side, 3 side chain; on linkers, the order of the positions; unused ones are H or OH. Bridge positions count the residues as written; N and C are the ends. Square brackets hold non-standard residues; d marks the D form. Peptide text beside a SMILES is read from it. Acbc(cis-1,3) = O=C([C@H]1C[C@@H](N[*:1])C1)[*:2]; X1 = O=C([C@@H]1CC[C@H](N[*:1])C1)[*:2]

How the values were obtained:
[1] = molecular target: T1, SARS-CoV-2 M^pro (Severe acute respiratory syndrome coronavirus 2, UniProt P0DTD1); experiment: biochemical; type: binding; conditions: for kon: read-out: ka (kinetic association)
[2] = molecular target: T1, SARS-CoV-2 M^pro; experiment: biochemical; type: biochemical
[3] = Serum stability assay in human serum (LC/MS)
[4] = 37 °C, incubation time 1 h, relative to 0 h = 100%, technical replicates, 60 min
[5] = 37 °C, incubation time 4 h, relative to 0 h = 100%, technical replicates, 240 min
[6] = 37 °C, incubation time 8 h, relative to 0 h = 100%, technical replicates, 480 min
[7] = 37 °C, incubation time 24 h, relative to 0 h = 100%, technical replicates, 1440 min
[8] = 37 °C, incubation time 50 h, relative to 0 h = 100%, technical replicates, 3000 min
[9] = 37 °C, incubation time 100 h, relative to 0 h = 100%, technical replicates, 6000 min
[10] = human, Remaining peptide (%), 37 °C, incubation time 1 h, relative to 0 h = 100%, technical replicates
[11] = human, Remaining peptide (%), 37 °C, incubation time 4 h, relative to 0 h = 100%, technical replicates
[12] = human, Remaining peptide (%), 37 °C, incubation time 8 h, relative to 0 h = 100%, technical replicates
[13] = human, Remaining peptide (%), 37 °C, incubation time 24 h, relative to 0 h = 100%, technical replicates
[14] = human, Remaining peptide (%), 37 °C, incubation time 50 h, relative to 0 h = 100%, technical replicates
[15] = human, Remaining peptide (%), 37 °C, incubation time 100 h, relative to 0 h = 100%, technical replicates
[16] = 37 °C, incubation time 2 h, relative to 0 h = 100%, technical replicates, 120 min
[17] = human, Remaining peptide (%), 37 °C, incubation time 2 h, relative to 0 h = 100%, technical replicates

| Structure (SMILES) | Kd [1] [nM] | kd (kinetic dissociation) [1] | kon [1] [M⁻¹ s⁻¹] | IC50 [2] [nM] | inhibition at 16.6 µM [2] [%] | inhibition at 50.1 µM [2] [%] | Remaining peptide (%) [3, 4] | Remaining peptide (%) [3, 5] | Remaining peptide (%) [3, 6] | Remaining peptide (%) [3, 7] | Remaining peptide (%) [3, 8] | Remaining peptide (%) [3, 9] | half-life at 10 μM ([3]; human) [h] | remaining at 1 h, 10 μM [3, 10] [%] | remaining at 4 h, 10 μM [3, 11] [%] | remaining at 8 h, 10 μM [3, 12] [%] | remaining at 24 h, 10 μM [3, 13] [%] | remaining at 50 h, 10 μM [3, 14] [%] | remaining at 100 h, 10 μM [3, 15] [%] | Remaining peptide (%) [3, 16] | further results |
| --- | --- | --- | --- | --- | --- | --- | --- | --- | --- | --- | --- | --- | --- | --- | --- | --- | --- | --- | --- | --- | --- |
| CC[C@H](C)[C@@H]1NC(=O)[C@H](Cc2ccc(O)cc2)NC(=O)[C@H](CC(C)C)NC(=O)[C@H](CC(=O)O)NC(=O)[C@H](CCCNC(=N)N)NC(=O)[C@H](Cc2ccccc2)NC(=O)[C@@H]2CC[C@@H](C2)NC(=O)[C@H](Cc2c[nH]cn2)NC(=O)[C@H](Cc2ccccc2)NC(=O)[C@@H](Cc2ccc(O)cc2)NC(=O)CSC[C@H](C(N)=O)NC(=O)CNC(=O)[C@H](CC(C)C)NC1=O [GM5] ({CH2CO}-[dY]FH[X1]FRDLYILG[dC]-NH2; thioether N-13) | 5.2 | 1.2 10^-3 s^-1 | 240000 | 40 | 100 | 100 | 101.31% and 104.14% | 77.04% and 80.18% | 83.97% and 82.30% | 66.27% and 59.32% | 29.51% and 26.23% | 20.75% and 19.44% | 32 | 101 | 78.7 | 83 | 58.4 | 30.7 | 19.9 | – | inhibition at 1.86 µM [2]: 100%; inhibition at 5.62 µM [2]: 100%; inhibition at […] [2]: 100% |
| CC(C)C[C@@H]1NC(=O)[C@H](CC(N)=O)NC(=O)[C@H](CC(C)C)NC(=O)[C@H]2C[C@H](C2)NC(=O)[C@H](C)NC(=O)[C@H](Cc2ccccc2)NC(=O)[C@@H](Cc2ccc(O)cc2)NC(=O)CSC[C@H](C(N)=O)NC(=O)CNC(=O)[C@@H]2CCCN2C(=O)[C@H](CCCNC(=N)N)NC(=O)[C@H](Cc2ccc(O)cc2)NC(=O)CNC1=O [GM4H3A] ({CH2CO}-[dY]FA[Acbc(cis-1,3)]LNLGYRPG[dC]-NH2; thioether N-13) | > 10000 | – | – | > 25000 | – | – | – | – | – | – | – | – | – | – | – | – | – | – | – | – | inhibition of M^pro (in words) [2]: no inhibition |
| CC[C@H](C)[C@@H]1NC(=O)[C@H](Cc2ccc(O)cc2)NC(=O)[C@H](CC(C)C)NC(=O)[C@H](CC(=O)O)NC(=O)[C@H](CCCNC(=N)N)NC(=O)[C@H](Cc2ccccc2)NC(=O)[C@H](C)NC(=O)[C@H](Cc2c[nH]cn2)NC(=O)[C@H](Cc2ccccc2)NC(=O)[C@@H](Cc2ccc(O)cc2)NC(=O)CSC[C@H](C(N)=O)NC(=O)CNC(=O)[C@H](CC(C)C)NC1=O [GM5γ^24A] ({CH2CO}-[dY]FHAFRDLYILG[dC]-NH2; thioether N-13) | 61 | 8.7 10^-3 s^-1 | 140000 | 50 | 100 | 100 | 85.94% and 86.10% | 83.58% and 80.89% | 69.62% and 72.73% | 51.61% and 49.70% | 25.37% and 24.58% | 8.38% and 8.41% | 21 | 89.2 | 82.3 | 70.9 | 45.5 | 23 | 7.6 | 65.85% and 75.80% | inhibition at 1.86 µM [2]: 100%; inhibition at 5.62 µM [2]: 100%; inhibition at […] [2]: 100%; remaining at 2 h, 10 μM [3, 17]: 75.3% |
| CC[C@H](C)[C@@H]1NC(=O)[C@H](CO)NC(=O)[C@H](Cc2ccccc2)NC(=O)[C@H]2C[C@H](C2)NC(=O)[C@H](Cc2c[nH]cn2)NC(=O)[C@H](Cc2ccccc2)NC(=O)[C@@H](Cc2ccc(O)cc2)NC(=O)CSC[C@H](C(N)=O)NC(=O)[C@H](CC(C)C)NC(=O)[C@H](CCCNC(=N)N)NC(=O)[C@H](Cc2ccc(O)cc2)NC(=O)[C@H](CCCNC(=N)N)NC(=O)[C@H](Cc2ccccc2)NC1=O [GM2] ({CH2CO}-[dY]FH[Acbc(cis-1,3)]FSIFRYRL[dC]-NH2; thioether N-13) | 71 | 15 10^-3 s^-1 | 210000 | 1750 | – | – | 55.82% and 51.95% | 19.16% and 17.53% | 10.08% and 8.62% | 1.74% and 1.76% | – | – | 1.1 | 48.3 | 17.5 | 9.99 | 1.85 | – | – | 34.08% and 32.68% | inhibition at 2.75 µM [2]: 75.7%; inhibition at 8.32 µM [2]: 96.8%; Remaining peptide (%) ([3]; 37 °C, incubation time 0.5 h, relative to 0 h = 100%, technical replicates, 30 min): 61.67% and 57.11%; remaining at 0.5 h, 10 μM ([3]; human, Remaining peptide (%), 37 °C, incubation time 0.5 h, relative to 0 h = 100%, technical replicates): 57.7%; remaining at 2 h, 10 μM [3, 17]: 36% |
| CC[C@H](C)[C@@H]1NC(=O)[C@H](Cc2ccc(O)cc2)NC(=O)[C@H]([C@@H](C)O)NC(=O)[C@H](C)NC(=O)[C@@H]2CC[C@@H](C2)NC(=O)[C@H](CO)NC(=O)[C@H]([C@@H](C)O)NC(=O)[C@H](Cc2ccc(O)cc2)NC(=O)[C@H](Cc2ccccc2)NC(=O)[C@H](Cc2c[nH]cn2)NC(=O)[C@H](CC(C)C)NC(=O)[C@@H](Cc2ccc(O)cc2)NC(=O)CSC[C@H](C(N)=O)NC(=O)[C@@H]2CCCN2C(=O)[C@H](Cc2ccc(O)cc2)NC1=O [GM7, ^AcyLHFYTSγ^2ATYIYPc-NH2] ({CH2CO}-[dY]LHFYTS[X1]ATYIYP[dC]-NH2; thioether N-15) | 490 | 23 10^-3 s^-1 | 48000 | 7930 | – | – | – | – | – | – | – | – | – | – | – | – | – | – | – | – | inhibition at 25.1 µM [2]: 96% |
| CC(C)C[C@@H]1NC(=O)[C@H](CC(N)=O)NC(=O)[C@H](CC(C)C)NC(=O)[C@H]2C[C@H](C2)NC(=O)[C@H](CCC(N)=O)NC(=O)[C@H](Cc2ccccc2)NC(=O)[C@@H](Cc2ccc(O)cc2)NC(=O)CSC[C@H](C(N)=O)NC(=O)CNC(=O)[C@@H]2CCCN2C(=O)[C@H](CCCNC(=N)N)NC(=O)[C@H](Cc2ccc(O)cc2)NC(=O)CNC1=O [GM4H3Q] ({CH2CO}-[dY]FQ[Acbc(cis-1,3)]LNLGYRPG[dC]-NH2; thioether N-13) | 0.86 | 1.0 10^-3 s^-1 | 1.2e+06 | 10 | – | – | 98.03% and 94.19% | 100.31% and 98.70% | 92.68% and 86.88% | 77.71% and 81.24% | 64.07% and 63.70% | 43.40% and 43.85% | 82 | 93.4 | 99.9 | 93.9 | 81.3 | 70.1 | 44.2 | 84.19% and 81.93% | fold change in binding affinity relative to the original peptide [1]: sixfold stronger; fold more potent inhibitory activity relative to GM4 [2]: fivefold more potent; inhibition at 0.186 µM [2]: 96%; inhibition at 0.55 µM [2]: 100%; inhibition at 1.66 µM [2]: 100%; inhibition at 5.01 µM [2]: 100%; remaining at 2 h, 10 μM [3, 17]: 87.5% |
| CC(C)C[C@@H]1NC(=O)[C@H](CC(N)=O)NC(=O)[C@H](CC(C)C)NC(=O)[C@H]2C[C@H](C2)NC(=O)[C@H](CCC(=O)O)NC(=O)[C@H](Cc2ccccc2)NC(=O)[C@@H](Cc2ccc(O)cc2)NC(=O)CSC[C@H](C(N)=O)NC(=O)CNC(=O)[C@@H]2CCCN2C(=O)[C@H](CCCNC(=N)N)NC(=O)[C@H](Cc2ccc(O)cc2)NC(=O)CNC1=O [GM4H3E] ({CH2CO}-[dY]FE[Acbc(cis-1,3)]LNLGYRPG[dC]-NH2; thioether N-13) | 360 | 7.1 10^-3 s^-1 | 20000 | > 25000 | – | – | – | – | – | – | – | – | – | – | – | – | – | – | – | – | inhibition of M^pro (in words) [2]: observed only with the highest tested concentration (25 µM) |
| CC(C)C[C@@H]1NC(=O)[C@H](CC(N)=O)NC(=O)[C@H](CC(C)C)NC(=O)[C@H](CC(N)=O)NC(=O)[C@H](Cc2c[nH]cn2)NC(=O)[C@H](Cc2ccccc2)NC(=O)[C@@H](Cc2ccc(O)cc2)NC(=O)CSC[C@H](C(N)=O)NC(=O)CNC(=O)[C@@H]2CCCN2C(=O)[C@H](CCCNC(=N)N)NC(=O)[C@H](Cc2ccc(O)cc2)NC(=O)CNC1=O [GM4γ^14N] ({CH2CO}-[dY]FHNLNLGYRPG[dC]-NH2; thioether N-13) | 480 | 9.5 10^-3 s^-1 | 20000 | 1000 | 100 | 100 | – | – | – | – | – | – | – | – | – | – | – | – | – | – | fold less active than GM4 (M^pro inhibition) [2]: 20 fold |
| CC[C@H](C)[C@@H]1NC(=O)[C@H](Cc2ccccc2)NC(=O)[C@@H](Cc2ccc(O)cc2)NC(=O)CSC[C@H](C(N)=O)NC(=O)[C@H]([C@@H](C)CC)NC(=O)[C@@H]2CCCN2C(=O)[C@H](CC(C)C)NC(=O)[C@H]2C[C@H](C2)NC(=O)[C@H](Cc2c[nH]cn2)NC(=O)[C@@H]2CCCN2C(=O)[C@H](CC(=O)O)NC(=O)[C@H](Cc2c[nH]cn2)NC(=O)[C@H](Cc2ccccc2)NC(=O)[C@H]([C@@H](C)CC)NC(=O)[C@H]([C@@H](C)O)NC(=O)[C@H](Cc2c[nH]cn2)NC1=O [GM6] ({CH2CO}-[dY]FIHTIFHDPH[Acbc(cis-1,3)]LPI[dC]-NH2; thioether N-16) | 82 | 6.4 10^-3 s^-1 | 78000 | 2280 | 100 | 100 | – | – | – | – | – | – | – | – | – | – | – | – | – | – | inhibition at 5.5 µM [2]: 90.2% |
